Experimental data taken from patent US9486507B2, “Pro-coagulant compounds and methods of use thereof” (priority 2011, dated 2016).
Several values for one entry are separate records, joined by “and”; a condition that tells them apart may be missing. Equal entries are not always repeated.

Tests used:
[1] = target: T1, FXa or the prothrombinase complex (Homo sapiens, UniProt P00742); experiment: FXa / prothrombinase activity in purified thrombin generation assay; format: biochemical; conditions: 1 μM; FXa 0.05 ug/mL, with or without FV
T1 construct: Under these conditions FIXa cleaves the zymogen FX into the active form FXa
T1 sequence (P00742 41-179 limits assumed): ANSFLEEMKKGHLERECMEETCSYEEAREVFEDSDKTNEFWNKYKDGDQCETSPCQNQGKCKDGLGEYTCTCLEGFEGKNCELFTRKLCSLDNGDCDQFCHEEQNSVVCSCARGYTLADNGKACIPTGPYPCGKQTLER
T1 sequence (P00742 235-488 limits assumed): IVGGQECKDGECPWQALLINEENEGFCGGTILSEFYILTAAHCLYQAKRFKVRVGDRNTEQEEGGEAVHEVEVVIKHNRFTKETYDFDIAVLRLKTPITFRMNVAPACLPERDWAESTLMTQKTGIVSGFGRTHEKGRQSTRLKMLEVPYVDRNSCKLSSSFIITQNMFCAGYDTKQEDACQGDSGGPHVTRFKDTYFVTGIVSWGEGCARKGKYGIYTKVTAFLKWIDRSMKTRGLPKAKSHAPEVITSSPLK
Description: In another experiment it was determined whether or not the compounds of the present disclosure directly enhance the activity of FXa or the prothrombinase complex.

[2] = tested on: platelets; experiment: Platelet aggregation (aggregometer); format: cell-based
Description: ADP was used as a positive control for platelet aggregation.

[3] = tested on: FIX-deficient human plasma; experiment: ROTEM in FIX-deficient human plasma; format: biochemical
Description: Compounds of the present disclosure were tested by rotational thromboelastometry to evaluate coagulation parameters such as clotting time (CT), α-angle, clot formation time (CFT), maximum clot firmness (MCF). Briefly, lyophilized and citrated FVIII deficient human plasma (Siemens) was reconstituted with 1 mL of distilled water, allowed to stand for 20 min at RT and mixed well before use. Alternatively, an aliquot of citrated (non-lyophilized) FVIII deficient human plasma (HRF, George King, Precision Biologics, or real-time donors) was thawed for 10 min in a 37° C. water bath and when needed centrifuged at 2800 g for 5 min at 25° C. FVIII deficient plasma was spiked with lyophilized platelets (Helena Laboratories, final concentration 0.5×10^8 cells/ml) and compounds, FVIII, or both compound and FVIII. Dilutions of compounds of the present disclosure and controls, such as FVIII, were prepared in PBS (—Ca, —Mg). Next, 300 μl of the spiked plasma was transferred to a ROTEM cup already containing 20 μl of StarTEM (concentrated calcium chloride solution) and 20 μl of lipidated TF (American Diagnostica, final concentration 10 fM) or Kaolin (Sigma-Aldrich, final concentration 0.4 μg/ml) and recording was initiated. The cups were maintained at 37° C. during the testing.

[4] = tested on: FVIII deficient human plasma; experiment: Thrombin generation assay (TGA) in FVIII-deficient plasma; format: biochemical; conditions: for Thrombin Above Baseline (nM): HRF FVIII-deficient plasma (1)
[5] = target: T2, FVIIa (Homo sapiens, UniProt P08709); experiment: FXa generation assay with human FVIIa; format: biochemical; conditions: absence of PL
T2 construct: The two-chain Factor VIIa is a polypeptide produced from FVII by hydrolysis of the Arg152-Ile153 peptide bond of FVII; purchased Haematologic Technologies
T2 sequence (P08709 61-212 limits assumed): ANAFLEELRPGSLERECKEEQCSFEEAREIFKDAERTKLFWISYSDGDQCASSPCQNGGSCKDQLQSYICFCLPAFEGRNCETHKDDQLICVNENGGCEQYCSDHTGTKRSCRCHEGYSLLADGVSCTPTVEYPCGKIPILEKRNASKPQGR
T2 sequence (P08709 213-466 limits assumed): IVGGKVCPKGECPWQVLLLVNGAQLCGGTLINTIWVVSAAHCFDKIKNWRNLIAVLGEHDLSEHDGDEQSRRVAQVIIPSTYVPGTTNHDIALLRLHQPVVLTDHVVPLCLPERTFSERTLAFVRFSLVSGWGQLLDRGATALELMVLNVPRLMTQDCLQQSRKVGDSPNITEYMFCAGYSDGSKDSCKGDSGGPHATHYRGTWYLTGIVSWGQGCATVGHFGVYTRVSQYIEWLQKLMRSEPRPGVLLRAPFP
Description: (§1) Similarly, in order to measure the catalytic activity of FVIIa, a FXa generation assay measuring the ability of the compounds of the present disclosure to enhance the catalytic activity of FVIIa was established. The difference between the two assays was that the final concentration of 10 nM hFIXa was replaced with 10 nM hFVIIa. The remaining reagents and assay procedures described above were unchanged.

[6] = target: T3, FIXa (Homo sapiens, UniProt P00740); experiment: Km/Kcat of FIXa for the substrate FX (FXa generation assay); format: biochemical; parameters: purchased Haematologic Technologies
T3 sequence (P00740 47-191 limits assumed): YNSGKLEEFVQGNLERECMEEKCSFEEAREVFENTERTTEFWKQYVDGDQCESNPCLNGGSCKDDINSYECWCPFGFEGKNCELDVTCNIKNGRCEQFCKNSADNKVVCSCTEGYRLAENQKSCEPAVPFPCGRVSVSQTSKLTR
T3 sequence (P00740 227-461 limits assumed): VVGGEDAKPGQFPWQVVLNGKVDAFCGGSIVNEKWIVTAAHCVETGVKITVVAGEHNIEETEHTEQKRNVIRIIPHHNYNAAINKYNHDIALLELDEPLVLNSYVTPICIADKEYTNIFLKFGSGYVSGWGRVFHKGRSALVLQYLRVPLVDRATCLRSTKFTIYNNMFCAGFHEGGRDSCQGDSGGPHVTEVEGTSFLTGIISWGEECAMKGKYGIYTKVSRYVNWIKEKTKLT
Description: To determine the Km and Kcat of FIXa or FVIIa for the substrate FX, the FXa generation assay described above was used with the following modifications. […] Reactions were set up with varying concentrations of FX ranging between 400 and 0.8 nM and the rates of FXa generation were determined for each peptide at the different FX concentrations tested as described above. […] The catalytic constant (Kcat) was calculated by normalizing the Vmax to the enzyme concentration.
FIXa was used at 10 nM, and FX was used at 10-1000 nM. The assay was performed in the presence of phospholipids (PL) and calcium chloride.

[7] = target: α-thrombin (Homo sapiens, UniProt P00734); experiment: Fibrin generation assay (thrombin activity); format: biochemical; conditions: compound 5 1 uM; α-thrombin 0 or 0.1 IU/mL
Description: The generation of fibrin was determined by measuring the absorbance at OD405 with the Biotek Synergy 2 multi-detection microplate reader.

[8] = target: T3, FIXa; experiment: Heparin accelerated FIXa-AT complex formation assay; format: biochemical; parameters: purchased Haematologic Technologies; conditions: with heparin, 0 min
[9] = tested on: purified recombinant human coagulation factors; experiment: Thrombin generation assay using purified hemostatic components; format: biochemical
Description: Purified recombinant human coagulation factors V, XI, II, X, IX, VII, VIIa, recombinant tissue factor and antithrombin III (ATIII) were obtained from Haematologic Technologies (Essex Junction, Vt., USA). Lyophilized platelets were from Helena Laboratorires (Beaumont, Tex.); TFPI was from American Diagnostica.

[10] = target: T2, FVIIa; experiment: Km/Kcat of FVIIa for the substrate FX (FXa generation assay); format: biochemical; conditions: presence vs absence of compound 5
Description: as §1
To determine the Km and Kcat of FIXa or FVIIa for the substrate FX, the FXa generation assay described above was used with the following modifications. A single peptide concentration was tested (typically one that gave the maximal rate of FXa generation) and the concentration of all assay components was similar to that described above with the exception of FX. Reactions were set up with varying concentrations of FX ranging between 400 and 0.8 nM and the rates of FXa generation were determined for each peptide at the different FX concentrations tested as described above. For each peptide assayed, the data were fitted to the following equation that gives the Michaelis-Menten constant (Km) and the Vmax for FIXa or FVIIa: v=Vmax [FX]/Km+[FX], wherein v is the rate of FXa generation determined as described above. The catalytic constant (Kcat) was calculated by normalizing the Vmax to the enzyme concentration.

[11] = target: T3, FIXa; experiment: FXa generation assay with human FIXa; format: biochemical; parameters: purchased Haematologic Technologies
[12] = FIX-deficient plasma (containing platelets), 10 μM
[13] = FIX-deficient plasma, compound 5 2.5 μM + FIX-Fc 0.25 IU/mL
[14] = human HemB plasma, lyophilized platelets, 10 fM TF, 5 μM
[15] = human HemB plasma, lyophilized platelets, 10 fM TF, 10 μM
[16] = human HemB plasma, 5 μM, anti-FIX pab +
[17] = human HemB plasma, 5 μM, anti-FIX pab −
[18] = human HemB plasma, 10 μM, anti-FIX pab −
[19] = hFIXa 10 nM, FX 10-1000 nM, PL, CaCl2, compound 1 3 μM, compounds 3, 4, 5 1 μM, compound C 10 μM

rRAPGKLTCLASYCWLFWTGIA [Compound 5]
catalytic activity of FXa or the prothrombinase complex [1]: did not substantially increase the catalytic activity of FXa or the prothrombinase complex | effect on ADP-activated platelets ([2]; 30 μM): only a moderate effect | induction of platelet aggregation ([2]; compound 5 about 30 μM, compound 22 10 μM and 30 μM): did not induce platelet aggregation | effect on ADP-activated platelets ([2]; concentration of up to 10 μM): did not exhibit a significant effect | Clotting time, sec [3, 12]: 1,311 sec and 1,328 sec | α-angle, degrees [3, 12]: 15 degrees and 19 degrees | Clotting time [3, 13]: 876.5 s | α-angle [3, 13]: 39.5 degrees | Clotting time [3, 14]: 836 s and 810 s | α-angle, degrees [3, 14]: 24 degrees and 20 degrees | Clotting time [3, 15]: 804 s and 773 s | α-angle, degrees [3, 15]: 22 degrees and 21 degrees | Clotting time, sec [3, 16]: 1,660 sec and 1,661 sec | α-angle, degrees [3, 16]: 9 degrees | Clotting time, sec [3, 17]: 1,420 sec and 1,556 sec | α-angle, degrees [3, 17]: 11 degrees and 12 degrees | α-angle, degrees ([3]; human HemB plasma, 10 μM, anti-FIX pab +): 13 degrees and 10 degrees | Clotting time, sec [3, 18]: 1,182 sec and 1,194 sec | α-angle, degrees [3, 18]: 12; 12 degrees | additive effect with FVIII on thrombin generation ([4]; 0.1 pM lipidated TF, low amounts of rFVIII (FIG. 2)): shows additive thrombin generation activity with FVIII | amount of thrombin generated, as rFVIII equivalent ([4]; 10 μM compound 5, 0.1 pM lipTF): about 0.2 IU/mL | amount of thrombin generated, compared with FVIII ([4]; 5 or 10 μM compound 5, 0.1 pM lipTF): > 0.1 U/mL | Thrombin Above Baseline (nM) ([4]; 2.5 μM): + (1-10 nM (1) or 1-29 nM (2) (+)) | Thrombin Above Baseline (nM) ([4]; 5 μM): + (1-10 nM (1) or 1-29 nM (2) (+)) | Thrombin Above Baseline (nM) ([4]; 10 μM): ++ (11-20 nM (1) or 30-59 nM (2) (++)) | Thrombin Above Baseline (nM) ([4]; 20 μM): ++ (11-20 nM (1) or 30-59 nM (2) (++)) | lag time ([4]; compound 5 at 10 μM and 5 μM, 0.1 pM lipTF (FIG. 3)): shorter lag time than 0.1 or 0.25 U/mL of FVIII | increase of FVIIa activity, % of control [5]: about 10% | Km [6, 19]: 0.011 ± 0.0023 µM | kcat [6, 19]: 0.000298 s⁻¹ | Δ kcat FIXa ([6]; presence vs absence of compound 5): 199 | Δ kcat ([6]; relative to buffer (1.0), compound 1 3 μM, compounds 3, 4, 5 1 μM, compound C 10 μM): 199 | catalytic activity of thrombin (fibrin generation, OD405) [7]: did not substantially increase the catalytic activity of thrombin directly | % FIXa-AT complex formation ([8]; Compound 5 0.1 μM): 0% | % FIXa-AT complex formation ([8]; Compound 5 1 μM): 0% | % FIXa-AT complex formation ([8]; Compound 5 10 μM): 0% | thrombin generation, FXIa dependence ([9]; compound 5 1 μM, 0, 50% or 100% FXIa (FIG. 8)): dependent on the FXIa concentration | thrombin generation, FIXa dependence ([9]; compound 5 1 μM, 1%, 10% or 100% (3.1 μg/mL) FIXa (FIG. 7)): dependent on the FIXa concentration | thrombin generation without FIX/FIXa ([9]; compound 5 1 μM, FVII, FVIIa, TF, FV, FX, FII, ATIII, TFPI, platelets): enhanced thrombin generation in the absence of FIX/FIXa | thrombin generation, dose dependence ([9]; compound 5 at 1 nM, 10 nM, 100 nM, 1 μM, 2 μM (FIG. 6)): enhances thrombin generation in a dose-dependent manner | thrombin generation ([9]; compounds 1 μM, FVIII 0.1 or 1 IU/mL (FIG. 5)): induce thrombin generation | Δ kcat FVIIa [10]: 2419 | Vmax ([11]; FXa generation assay, 10 nM hFIXa, 100 nM hFX, class symbols): (+++) ((+++)>2) | increase of FIXa catalytic activity, % of control ([11]; absence of PL): about 80%
